The record followed here is publication PMC7203245, “Lacosamide intake during pregnancy increases the incidence of foetal malformations and symptoms associated with schizophrenia in the offspring of mice” (Scientific Reports, 2020).

Data set [1] in a line: LCM concentration in serum of dams by UHPLC-QTOF-MS. The class given is in vivo, mice. The note with it: female, mouse, intraperitoneal, 24 h post-injection, 2 dams in each dose group (10-120 mg/kg), no relationship with dose. How it is done:
Maternal weights were assessed at the end of the treatment periods. After 14.5 days of gestation (embryonic day14.5, E14.5), blood was extracted from the orbital sinus of the pregnant dams under anaesthesia (70 mg/kg Thiobarbital: Braun Medical S.A. Spain), as described previously[56] and sacrificed by neck dislocation immediately after. Blood samples were centrifuged immediately, and the serum was collected and stored at -80 °C for further chemical analysis.
Samples were extracted as described previously[25] with slight modifications. Briefly, embryos were rinsed with cold saline and ultrapure water, and their wet-weight was determined. They were then homogenized using a 150 T Ultrasonic homogenizer (Fisher Scientific, Spain) and 10 µL of an internal standard solution (IS: aqueous D^3-LCM IS, 5 mg mL^−1) was added to the biological samples (embryos or 50 µL of serum). […] The mixture was vortexed vigorously for 3 min and centrifuged at 13,000 g for 5 min. The supernatant was transferred to a new Eppendorf tube and evaporated to dryness in a stream of nitrogen gas. The residue was reconstituted with 50 µL of LC-MS Ultrapure water, vortexed for 20 s and centrifuged at 13,000 g for 5 min. The supernatant was transferred to a conic micro insert to be injected onto the UHPLC system.
MS spectra data were collected between m/z 50 and 1000, and MS/MS spectra were registered between 50-300 Da. […]

In data set [2] the test system is adult male mice. In words: Dark-light emergence task. The data set is classed as in vivo. The note with it: 40 mg/kg in utero; 5 minutes. As to the method: (§1) All trials were performed by an experimenter blind to the drug treatment.
Dark-light emergence task. Anxiety-like behaviour was determined in mice using the dark-light emergence test. Testing was carried out in a white open field (50 x 50 cm) containing a small opaque chamber (12 x 12 cm) situated in the centre. The open field was illuminated by a lamp directed at the centre of the field (120 lux focused on the floor). Mice were moved to the testing room 1 hour prior to behavioural testing and they were introduced into the unfamiliar test environment by placing them into the small chamber and recording their behaviour over 5 minutes with a video camera. The total time spent outside the chamber was then quantified by reviewing the video recording.

Data set [3] relates to adult male mice. In words: Predator test. The class given is in vivo. How it is done: as §1
Predator test. The predator test was performed in a rectangular arena (55 x 40 x 40 cm) where a small tube was placed in a corner. The subject mouse was first placed in the area with the empty tube for 5 mins and afterwards, the tube was filled with material from a cage that housed a rat and the mice were allowed to explore the entire fear test box for 10 mins. The time spent by the mice sniffing the tube full of the rat’s material was measured with the aid of the camera fitted to the top of the box.

Data set [4] relates to adult male mice. In words: Motor activity and exploration in the open field. The data set is classed as in vivo. The note with it: high-dose LCM in utero; 3–5 month old mice; 5 minutes. As to the method: as §1
Motor activity in the open field. To evaluate locomotor and exploratory activity, mice were placed in an open field for 5 minutes (38 x 21 x 15 cm: Cybertec S.A., Madrid, Spain). This apparatus consisted of a walled platform containing infrared (IR) emitters and sensors coupled to an actimeter, and the movement sensor was connected to a computer that recorded the number of times the mouse interrupted the IR beams/min. Exploratory activity, was determined through the time the mice interacted with two different objects in a 15 minute session.

Data set [5] relates to pups. The data set is described as follows: Litter loss, neonatal lethality and body weight of pups born to dams given LCM during gestation. The data set is classed as in vivo, mice. The note with it: for weight gain from P2 to P13: higher dose. As to the method: Thus, we used 10, 40, 80 and 120 mg/kg in mice, which corresponded to 56.7, 227, 454 and 681 mg/day in humans, considering an average weight of human to be 70 kg and that of mice to be 30 gr[52],[55]. Controls were administered the vehicle alone: saline solution 0.9% w/v. […] A total of 32 dams were initially treated daily, two days before mating and until the 14th day post-coitus. […] In the breastfeeding period, females were not under treatment given that a person will bottle feed the baby if they were on medication.
In this part of the study, dams were treated until the day of delivery. After analysing the embryo toxicity data, the treatments were categorized as controls (saline vehicle solution alone), low dose (40 mg/kg) and high dose (120 mg/kg). […] The day of birth was designated as postnatal day (P) P0 and the litter size delivered by each dam was recorded, checking each pup for gross abnormalities. Pups were nursed by their natural dams until weaning and from PD 2, the pups were weighed and neonatal behavioural tests were carried out on 12 control mice, 12 low dose and 10 high dose mice from 7 litters. During testing whole litters were separated from the dams and maintained for 30 min in a warm environment. At this stage, males and females were pooled for neurodevelopmental screening. All testing was performed between 07:30 a.m. and 12:00 a.m., and the mice were weighed before performing the tests.

[6] abbreviates: higher dose (120 mg/kg) to dams during gestation.
Setting [7] is: lower dose (40 mg/kg) to dams during gestation.

Molecules are shown by their SMILES.

In the case of `COC[C@@H](NC(C)=O)C(=O)NCc1ccccc1` [LCM, R-2-acetamido-N-benzyl-3-methoxypropionamide], the concentration at 24 h in data set [1] was 5 to 133 ng/mL. For the same compound, the “time spent in the dark compartment (emergence test)” value in data set [2] amounted to 217.2 ± 11.19 s. Further, the figures for the “time sniffing the predator's material” value in data set [3] (40 mg/kg in utero) and in data set [3] (120 mg/kg in utero) were 22.85 ± 4.07% and 22.91 ± 2.08%, respectively. Further, in data set [4], the “locomotor activity in open field” value is “enhanced locomotor activity”. For the same compound, the “dams that never gained weight, suggesting that they lost their litters” value in data set [5] (40 mg/kg LCM daily from second day of gestation to birth) is on record as 1/5; in data set [5] (120 mg/kg LCM daily from second day of gestation to birth), 2/8. In data set [5] (both LCM doses (40 and 120 mg/kg in utero), adult mice), the “body weight differences in adults” value is “disappeared”. Also, the “neonatal lethality (%)” value came out at 15.38% in data set [5] (setting [6]) and 9% in data set [5] (setting [7]). In addition, the entries for the “neonatal lethality (pups)” value in data set [5] (setting [6]) and in data set [5] (setting [7]) were 10/65 and 3/33, respectively. The “weight gain from P2 to P13” value in data set [5] (litter that died in the perinatal nursing period) was 2 g; in data set [5] (other pups under the same condition), 6.1 g. Moreover, the “pups of an entire litter that died in the perinatal nursing period (P15-16)” value in data set [5] (one dam exposed to higher dose) is 11 pups.
